{"source": "ChEMBL document CHEMBL6109088", "about": "(J Med Chem, 2025)", "key": {"[1]": {"assay": "in vivo", "details": "male, Wistar Hannover, rat, po, 10 mg/kg"}, "[2]": {"assay": "in vivo", "details": "male, Wistar Hannover, rat, po, 10 mg/kg", "remark": "listed apart in the source"}, "[3]": {"assay": "in vivo", "details": "male, cynomolgus monkey, po, 10 mg/kg"}, "[4]": {"assay": "in vivo", "details": "male, Wistar Hannover, rat, po, 100 mg/kg"}, "[5]": {"assay": "in vivo", "details": "male, cynomolgus monkey, iv, 1 mg/kg"}, "[6]": {"assay": "in vitro", "details": "dog, MDCK"}, "[7]": {"assay": "in vivo", "details": "male, cynomolgus monkey, po, 100 mg/kg"}, "[8]": {"assay": "in vivo", "details": "male, Wistar Hannover, rat, po, 10 mg/kg", "remark": "listed apart in the source"}, "[9]": {"assay": "in vivo", "details": "male, Wistar Hannover, rat, po, 10 mg/kg", "remark": "listed apart in the source"}, "[10]": {"assay": "in vivo", "details": "male, cynomolgus monkey, po, 100 mg/kg", "remark": "listed apart in the source"}, "[11]": {"assay": "in vivo", "details": "male, Wistar Hannover, rat, po, 100 mg/kg", "remark": "listed apart in the source"}, "[12]": {"assay": "in vivo", "details": "male, cynomolgus monkey, po, 100 mg/kg", "remark": "listed apart in the source"}, "[13]": {"assay": "in vivo", "details": "male, Wistar Hannover, rat, po, 100 mg/kg", "remark": "listed apart in the source"}, "[14]": {"assay": "in vitro", "details": "human, liver microsomes"}, "[15]": {"assay": "in vivo", "details": "male, cynomolgus monkey, po, 10 mg/kg", "remark": "listed apart in the source"}, "[16]": {"assay": "in vivo", "details": "male, cynomolgus monkey, po, 100 mg/kg", "remark": "listed apart in the source"}, "[17]": {"assay": "in vivo", "details": "male, cynomolgus monkey, po, 100 mg/kg", "remark": "listed apart in the source"}, "[18]": {"assay": "in vivo", "details": "male, Wistar Hannover, rat, iv, 1 mg/kg"}, "[19]": {"assay": "in vivo", "details": "male, Wistar Hannover, rat, po, 100 mg/kg", "remark": "listed apart in the source"}, "[20]": {"assay": "in vivo", "details": "male, cynomolgus monkey, iv, 1 mg/kg", "remark": "listed apart in the source"}, "[21]": {"assay": "in vivo", "details": "male, Wistar Hannover, rat, po, 10 mg/kg", "remark": "listed apart in the source"}, "[22]": {"assay": "in vivo", "details": "male, Wistar Hannover, rat, po, 10 mg/kg", "remark": "listed apart in the source"}, "[23]": {"assay": "in vivo", "details": "male, cynomolgus monkey, po, 10 mg/kg", "remark": "listed apart in the source"}, "[24]": {"assay": "in vivo", "details": "male, cynomolgus monkey, iv, 1 mg/kg", "remark": "listed apart in the source"}, "[25]": {"assay": "in vivo", "details": "male, Wistar Hannover, rat, po, 100 mg/kg", "remark": "listed apart in the source"}, "[26]": {"assay": "in vivo", "details": "male, Wistar Hannover, rat, plasma, iv, 1 mg/kg"}, "[27]": {"assay": "in vivo", "details": "male, cynomolgus monkey, po, 100 mg/kg", "remark": "listed apart in the source"}, "[28]": {"assay": "in vivo", "details": "male, Wistar Hannover, rat, po, 10 mg/kg", "remark": "listed apart in the source"}, "[29]": {"assay": "in vivo", "details": "male, cynomolgus monkey, plasma, iv, 1 mg/kg"}, "[30]": {"assay": "in vivo", "details": "male, Wistar Hannover, rat, iv, 1 mg/kg", "remark": "listed apart in the source"}, "[31]": {"assay": "in vivo", "details": "male, Wistar Hannover, rat, po, 100 mg/kg", "remark": "listed apart in the source"}, "[32]": {"assay": "in vivo", "details": "male, Wistar Hannover, rat, po, 10 mg/kg", "remark": "listed apart in the source"}, "[33]": {"assay": "in vivo", "details": "rat, po"}, "[34]": {"system": "SARS-CoV-2", "assay": "microbe, parasite or virus in culture", "details": "Severe acute respiratory syndrome coronavirus 2, USA-WA1/2020, Vero C1008"}, "[35]": {"assay": "physchem", "details": "octanol/water"}}}
{"smiles": "CC(C)(C)[C@H](NC(=O)C(F)(F)F)C(=O)N1C[C@H]2[C@@H]([C@H]1C(=O)N[C@H](C#N)C[C@@H]1CCNC1=O)C2(C)C", "values": [{"measurement": "Cmax at 4 h", "setting": "[1]", "result": 1290, "unit": "ng/mL"}, {"measurement": "Tmax at 4 h", "setting": "[2]", "result": 1.5, "unit": "h"}, {"measurement": "Cmax", "setting": "[3]", "result": 1450, "unit": "ng/mL"}, {"measurement": "AUC(0-inf) at 4 h", "setting": "[4]", "result": 18000, "unit": "ng·h/mL"}, {"measurement": "Vd", "setting": "[5]", "result": 0.33, "unit": "L/kg"}, {"measurement": "Papp A→B", "setting": "[6]", "result": 1.71, "unit": "×10⁻⁶ cm/s"}, {"measurement": "Tmax", "setting": "[7]", "result": 1, "unit": "h"}, {"measurement": "AUC(0-inf) at 4 h", "setting": "[8]", "result": 2170, "unit": "ng·h/mL"}, {"measurement": "half-life at 4 h", "setting": "[9]", "result": 2.8, "unit": "h"}, {"measurement": "Cmax", "setting": "[10]", "result": 16300, "unit": "ng/mL"}, {"measurement": "bioavailability at 4 h", "setting": "[11]", "result": 108, "unit": "%"}, {"measurement": "AUC(0-inf)", "setting": "[12]", "result": 37200, "unit": "ng·h/mL"}, {"measurement": "Tmax at 4 h", "setting": "[13]", "result": 0.75, "unit": "h"}, {"measurement": "microsomal CLint", "setting": "[14]", "result": 24.5, "unit": "µL/min/mg"}, {"measurement": "AUC(0-t)", "setting": "[15]", "result": 831, "unit": "ng·h/mL"}, {"measurement": "Tmax", "setting": "[16]", "result": 0.5, "unit": "h"}, {"measurement": "Cmax", "setting": "[17]", "result": 1560, "unit": "ng/mL"}, {"measurement": "half-life at 4 h", "setting": "[18]", "result": 5.1, "unit": "h"}, {"measurement": "bioavailability at 4 h", "setting": "[19]", "result": 29, "unit": "%"}, {"measurement": "half-life", "setting": "[20]", "result": 0.79, "unit": "h"}, {"measurement": "Cmax at 4 h", "setting": "[21]", "result": 1450, "unit": "ng/mL"}, {"measurement": "half-life at 4 h", "setting": "[22]", "result": 4, "unit": "h"}, {"measurement": "bioavailability", "setting": "[23]", "result": 8.5, "unit": "%"}, {"measurement": "AUC(0-inf)", "setting": "[24]", "result": 977, "unit": "ng·h/mL"}, {"measurement": "Tmax at 4 h", "setting": "[25]", "result": 1.4, "unit": "h"}, {"measurement": "clearance at 4 h", "setting": "[26]", "result": 27.2, "unit": "mL/min/kg"}, {"measurement": "AUC(0-inf)", "setting": "[27]", "result": 4400, "unit": "ng·h/mL"}, {"measurement": "AUC(0-inf) at 4 h", "setting": "[28]", "result": 3190, "unit": "ng·h/mL"}, {"measurement": "clearance", "setting": "[29]", "result": 17.1, "unit": "mL/min/kg"}, {"measurement": "Vd at 4 h", "setting": "[30]", "result": 1.8, "unit": "L/kg"}, {"measurement": "AUC(0-inf) at 4 h", "setting": "[31]", "result": 68300, "unit": "ng·h/mL"}, {"measurement": "bioavailability at 4 h", "setting": "[32]", "result": 50, "unit": "%"}]}
{"smiles": "CNC(=O)N[C@H](C(=O)N1C[C@H]2[C@@H]([C@H]1C(=O)N[C@H](C#N)C[C@@H]1CCNC1=O)C2(C)C)C(C)(C)C", "values": [{"measurement": "Papp A→B", "setting": "[6]", "result": 0.62, "unit": "×10⁻⁶ cm/s"}, {"measurement": "microsomal CLint", "setting": "[14]", "result": "< 7.12", "unit": "µL/min/mg"}]}
{"smiles": "CC(C)[C@H](NC(=O)C(F)(F)F)C(=O)N1C[C@H]2[C@@H]([C@H]1C(=O)N[C@H](C#N)C[C@@H]1CCNC1=O)C2(C)C", "values": [{"measurement": "Papp A→B", "setting": "[6]", "result": 0.721, "unit": "×10⁻⁶ cm/s"}, {"measurement": "bioavailability", "setting": "[33]", "result": 20, "unit": "%"}, {"measurement": "microsomal CLint", "setting": "[14]", "result": 7.9, "unit": "µL/min/mg"}, {"measurement": "EC50", "setting": "[34]", "result": 229, "unit": "nM"}]}
{"smiles": "COC(=O)N[C@H](C(=O)N1C[C@H]2[C@@H]([C@H]1C(=O)N[C@H](C#N)C[C@@H]1CCNC1=O)C2(C)C)C(C)(C)C", "values": [{"measurement": "Papp A→B", "setting": "[6]", "result": 0.61, "unit": "×10⁻⁶ cm/s"}, {"measurement": "bioavailability", "setting": "[33]", "result": 21, "unit": "%"}, {"measurement": "microsomal CLint", "setting": "[14]", "result": 8.1, "unit": "µL/min/mg"}]}
{"smiles": "CC(=O)N[C@H](C(=O)N1C[C@H]2[C@@H]([C@H]1C(=O)N[C@H](C#N)C[C@@H]1CCNC1=O)C2(C)C)C(C)(C)C", "values": [{"measurement": "Papp A→B", "setting": "[6]", "result": "< 0.302", "unit": "×10⁻⁶ cm/s"}, {"measurement": "bioavailability", "setting": "[33]", "result": 2.8, "unit": "%"}, {"measurement": "microsomal CLint", "setting": "[14]", "result": "< 7", "unit": "µL/min/mg"}, {"measurement": "EC50", "setting": "[34]", "result": 5310, "unit": "nM"}]}
{"smiles": "COc1cccc2[nH]c(C(=O)N[C@@H](CC(C)C)C(=O)N[C@H](C#N)C[C@@H]3CCNC3=O)cc12", "values": [{"measurement": "Papp A→B", "setting": "[6]", "result": 0.945, "unit": "×10⁻⁶ cm/s"}, {"measurement": "bioavailability", "setting": "[33]", "result": 7, "unit": "%"}]}
{"smiles": "CC(C)(C)[C@H](NC(=O)C(F)(F)F)C(=O)N1C[C@H]2[C@@H]([C@H]1C(=O)N[C@@H](C[C@@H]1CCNC1=O)C(=O)CO)C2(C)C", "values": [{"measurement": "Papp A→B", "setting": "[6]", "result": "< 0.481", "unit": "×10⁻⁶ cm/s"}, {"measurement": "microsomal CLint", "setting": "[14]", "result": "< 7", "unit": "µL/min/mg"}, {"measurement": "EC50", "setting": "[34]", "result": "< 331", "unit": "nM"}]}
{"smiles": "CC(C)(C)[C@H](NS(=O)(=O)C(F)(F)F)C(=O)N1C[C@H]2[C@@H]([C@H]1C(=O)N[C@H](C#N)C[C@@H]1CCNC1=O)C2(C)C", "values": [{"measurement": "Papp A→B", "setting": "[6]", "result": 0.7, "unit": "×10⁻⁶ cm/s"}, {"measurement": "microsomal CLint", "setting": "[14]", "result": "< 7.47", "unit": "µL/min/mg"}, {"measurement": "EC50", "setting": "[34]", "result": 179, "unit": "nM"}]}
{"smiles": "COc1cccc2[nH]c(C(=O)N3C[C@H]4[C@@H]([C@H]3C(=O)N[C@@H](C[C@@H]3CCNC3=O)C(=O)c3nc5ccccc5s3)C4(C)C)cc12", "values": [{"measurement": "Papp A→B", "setting": "[6]", "result": 7.3, "unit": "×10⁻⁶ cm/s"}, {"measurement": "logD", "setting": "[35]", "result": 4.2}, {"measurement": "microsomal CLint", "setting": "[14]", "result": 337, "unit": "µL/min/mg"}, {"measurement": "EC50", "setting": "[34]", "result": 5590, "unit": "nM"}]}
{"smiles": "CC(=O)N[C@H](C(=O)N1C[C@H]2[C@@H]([C@H]1C(=O)N[C@@H](C[C@@H]1CCNC1=O)C(=O)c1nc3ccccc3s1)C2(C)C)C(C)(C)C", "values": [{"measurement": "Papp A→B", "setting": "[6]", "result": 0.7, "unit": "×10⁻⁶ cm/s"}, {"measurement": "logD", "setting": "[35]", "result": 2.4}, {"measurement": "microsomal CLint", "setting": "[14]", "result": 27, "unit": "µL/min/mg"}, {"measurement": "EC50", "setting": "[34]", "result": 702, "unit": "nM"}]}
{"smiles": "COCC(=O)[C@H](C[C@@H]1CCNC1=O)NC(=O)[C@@H]1[C@@H]2[C@H](CN1C(=O)[C@@H](NC(=O)C(F)(F)F)C(C)(C)C)C2(C)C", "values": [{"measurement": "Papp A→B", "setting": "[6]", "result": 0.499, "unit": "×10⁻⁶ cm/s"}, {"measurement": "microsomal CLint", "setting": "[14]", "result": 11.8, "unit": "µL/min/mg"}, {"measurement": "EC50", "setting": "[34]", "result": 134, "unit": "nM"}]}
